# Experimental data as given in PMC8002893, “Influence of Complexation of Thiosemicarbazone Derivatives with Cu (II) Ions on Their Antitumor Activity against Melanoma Cells” (International Journal of Molecular Sciences, 2021).
# What was measured:
# [1] = system: SOD2; assay: qRT-PCR gene expression in A375 cells: SOD2; type: cell-based, human; settings: A375, 24 h, concentration corresponding to IC50; RQ = 2^-ΔΔCt vs control
# Method: (§1) The expression level of genes connected with DNA repair and oxidative stress response was evaluated with quantitative real-time PCR (qRT-PCR) method. The A375 cells were seeded in 6-well culture plates at a density 1 × 10^5 cells/mL and after 70–80% confluency achievement the cells were treated with CuT1, Cu10, CuT16 in concentrations corresponding to IC50 values or DMSO as vehicle in control cultures. After 24h of incubation total RNA was isolated using the Syngen Blood/Cell RNA Mini Kit (Syngen Biotech, Wroclaw, Poland). All samples were transcribed using NG dART RT-PCR reagents (EURx, Gdansk, Poland) according to the manufacturer’s instructions. The relative mRNA expression level was determined by relative quantification method (ΔΔCt) using 18S ribosomal N5 (RNA18SN5) and beta-actin (ACTB) as endogenous controls. The reference genes were selected on the basis of our preliminary studies, where RNA18SN5 and ACTB remained unaffected by the experimental conditions. The PCR was conducted in triplicate using Applied Biosystems® 7500 Fast Real-Time PCR system (Applied Biosystems, Foster City, CA, USA) and SG qPCR Master Mix (2×) (EURx, Gdansk, Poland) in accordance with the manufacturer’s protocol. Data was presented and analysed as RQ values (RQ = 2^−ΔΔCt).
# [2] = system: OGG1; assay: qRT-PCR gene expression in A375 cells: OGG1; type: cell-based, human; settings: A375, 24 h, concentration corresponding to IC50; RQ = 2^-ΔΔCt vs control
# Method: as §1
# [3] = system: G361 human melanoma cells; assay: MTT cell viability assay, G361 melanoma; type: cell-based; settings: G361, MTT test, 24 h treatment
# Method: (§2) The evaluation of cytotoxicity of tested compounds was carried out on the G361, A375, and SK-MEL-28 human melanoma cells and BJ human normal fibroblast cells. The cell lines were obtained from American Type Culture Collection (ATCC, Manassas, VA, USA). The cells were cultured at 37 °C in the presence of 5% CO2 in atmosphere. The culture medium (Dulbecco’s Modified Eagle’s Medium for G361 and A375 and Eagle’s Minimum Essential Medium for SK-MEL-28 and BJ) was supplemented with 10% foetal bovine serum. The cells morphology was examined under inverted phase contrast microscope Nikon Eclipse Ti (Nikon, Tokyo, Japan). The authenticity of tested cell lines was verified by short tandem repeat (STR) genotyping in the Department of Forensic Medicine (Medical University of Lublin, Lublin, Poland).
# (§3) The cells were seeded into 96-well plates (in concentration: BJ, A375, and SK-MEL-28—1 × 10^5 cells/mL, G361—1.5 × 10^5 cells/mL) and cultured until they reach 70–80% confluency. Then the cells were incubated with tested compounds and dacarbazine in concentrations ranging from 10 to 500 µM or DMSO as vehicle in control cultures for next 24 h (max. DMSO concentration <0.5%). The compounds cytotoxicity was evaluated with the MTT colorimetric method based on the ability of viable cells to the transformation of tetrazolium salts (3-[4,5-dimethylthiazol-2-yl]-2,5-) diphenyltetrazolium bromide, MTT) to purple formazan, by cellular dehydrogenases. After 24-h-incubation cell cultures were supplemented with 20 µL of 5 mg/mL MTT (Thermofisher, Waltham, MA, USA) stock in PBS (Corning, NY, USA), and the incubation was continued for 4 h at 37 °C. Next, the medium with MTT was removed, and the formed crystals were dissolved in 200 µL of DMSO (dimethyl sulfoxide, Avantor, Gliwice, Poland). The solution absorbency was measured at 570 nm, using a PowerWave™ xs microplate spectrophotometer (BioTek Instruments, Winooski, VT, USA). The experiment was performed three times with three replicates for each concentration of tested compounds. IC50 values were determined using the AAT Bioquest IC50 calculator [51]. On the basis of obtained IC50 values for normal and malignant cells, A375 cell line and three tested compounds (CuT1, Cu10, CuT16) were chosen for further investigation.
# [4] = system: ERCC; assay: qRT-PCR gene expression in A375 cells: ERCC; type: cell-based, human; settings: A375, 24 h, concentration corresponding to IC50; RQ = 2^-ΔΔCt vs control
# Method: as §1
# [5] = system: MLH1; assay: qRT-PCR gene expression in A375 cells: MLH1; type: cell-based, human; settings: A375, 24 h, concentration corresponding to IC50; RQ = 2^-ΔΔCt vs control
# Method: as §1
# [6] = system: SK-MEL-28 human melanoma cells; assay: MTT cell viability assay, SK-MEL-28 melanoma; type: cell-based; settings: SK-MEL-28, MTT test, 24 h treatment
# Method: as §2, §3
# [7] = system: CAT; assay: qRT-PCR gene expression in A375 cells: CAT; type: cell-based, human; settings: A375, 24 h, concentration corresponding to IC50; RQ = 2^-ΔΔCt vs control
# Method: as §1
# [8] = system: DNA of A375 cells; assay: DNA damage evaluation: number of AP sites; type: cell-based, human; settings: A375, 24 h, concentration corresponding to IC50; control 0.67 ± 0.08
# Method: DNA damage was evaluated on the basis of a basic (AP) sites presence, that arose in response to oxidative damage or as an intermediate in base excision repair pathway. The A375 cells were seeded in 6-well culture plates at a density 1 × 10^5 cells/mL and after 70–80% confluency achievement the cells were treated with CuT1, Cu10, CuT16 in concentrations corresponding to IC50 values or DMSO as vehicle in control cultures. After 24 h of incubation genomic DNA was isolated using Syngen DNA Mini Kit (Syngen Biotech, Wroclaw, Poland) according to the manufacturer’s instruction. The concentrations of isolated DNA for all samples were equalized to 100 µg/mL. The measurements of the number of AP sites were evaluated with DNA Damage Quantification Kit (Dojindo, Japan) according to the manufacturer’s instruction. The DNA was treated with Aldehyde Reactive Probe (ARP) to tag all of the AP sites with a biotin residue. Then all of the AP sites were quantified using avidin—biotin assay. The coloured product of horseradish peroxidase conjugated to the avidin was detected at 650 nm using a PowerWave™ xs microplate spectrophotometer (BioTek Instruments, Winooski, VT, USA).
# [9] = system: MSH2; assay: qRT-PCR gene expression in A375 cells: MSH2; type: cell-based, human; settings: A375, 24 h, concentration corresponding to IC50; RQ = 2^-ΔΔCt vs control
# Method: as §1
# [10] = system: GPX2; assay: qRT-PCR gene expression in A375 cells: GPX2; type: cell-based, human; settings: A375, 24 h, concentration corresponding to IC50; RQ = 2^-ΔΔCt vs control
# Method: as §1
# [11] = system: A375 cells; assay: Microscopic observation of cell morphology; type: cell-based, human; settings: A375, 24 h, concentration corresponding to IC50
# Method: The MTT test results for selected compounds were verified by microscopic observations of cell morphology. […] A large part of the cells floated in the culture medium (Figure 5).
# as §2
# [12] = system: XPC; assay: qRT-PCR gene expression in A375 cells: XPC; type: cell-based, human; settings: A375, 24 h, concentration corresponding to IC50; RQ = 2^-ΔΔCt vs control
# Method: as §1
# [13] = system: BJ human normal fibroblast cells; assay: MTT cell viability assay, BJ normal fibroblasts; type: cell-based; settings: MTT test, 24 h treatment
# Method: as §2, §3
# [14] = system: ATM; assay: qRT-PCR gene expression in A375 cells: ATM; type: cell-based, human; settings: A375, 24 h, concentration corresponding to IC50; RQ = 2^-ΔΔCt vs control
# Method: as §1
# [15] = system: A375 human melanoma cells; assay: MTT cell viability assay, A375 melanoma; type: cell-based
# Method: as §2, §3
# [16] = system: PARP1; assay: qRT-PCR gene expression in A375 cells: PARP1; type: cell-based, human; settings: A375, 24 h, concentration corresponding to IC50; RQ = 2^-ΔΔCt vs control
# Method: as §1
# [17] = system: MGMT; assay: qRT-PCR gene expression in A375 cells: MGMT; type: cell-based, human; settings: A375, 24 h, concentration corresponding to IC50; RQ = 2^-ΔΔCt vs control
# Method: as §1
compound,measurement,setting,value
COc1ccc(C=NNC(=S)Nc2ccccc2)cc1OC.[Cl-].[Cl-].[Cu+2] [CuT1],Mean RQ SOD2 mRNA,[1],1.510
same,Mean RQ OGG1 mRNA,[2],0.902
same,IC50,[3],136 ± 7.01 µM
same,Mean RQ ERCC mRNA,[4],0.401
same,Mean RQ MLH1 mRNA,[5],1.001
same,IC50,[6],130 ± 3.98 µM
same,Mean RQ CAT mRNA,[7],0.773
same,AP sites number,[8],20.24 ± 0.19 AP/100 kbp
same,Mean RQ MSH2 mRNA,[9],0.973
same,Mean RQ GPX2 mRNA,[10],0.000
same,cell morphology (in words),[11],became round and had poor adherence
same,Mean RQ XPC mRNA,[12],1.038
same,IC50,[13],257 ± 4.45 µM
same,Mean RQ ATM mRNA,[14],1.452
same,IC50,"[15]; A375, MTT test, 24 h treatment",69.9 ± 1.87 µM
same,toxicity to A375 / malignant cells versus normal cells (in words),"[15]; from IC50 values, MTT, 24 h",less toxic for normal cells
same,Mean RQ PARP1 mRNA,[16],0.908
same,Mean RQ MGMT mRNA,[17],0.715
